Test system: tyrosinase de champignons
Test: in vitro tyrosinase activity inhibition test (dopachrome formation followed at 475 nm)
Assay type: biochemical
Conditions: lowering of maximal dopachrome formed (OD 475 nm at plateau) vs no inhibitor; inhibitor at 50 % molaire relative to tyrosine; pH 6,5; 25°C
Description: Certains des composés de formule générale (I) ont été étudiés comparativement à l'hydroquinone à quantité molaire équivalente dans le test d'inhibition in vitro de l'activité de la tyrosinase.
Selon ce test on suit par spectrométrie visible à 475 nm la quantité de dopachrome formée au cours de la chaîne de réactions de transformation de la tyrosine en mélanines. Ces réactions sont catalysées in vitro par la tyrosinase de champignons, en présence d'un co-substrat réducteur (par exemple la L-dopa en petite quantité) pour initier la réaction d'hydroxylation de la L-tyrosine en L-dopa, laquelle est ensuite oxydée catalytiquement en dopaquinone puis en dopachrome, produit intermédiaire avant les réactions d'oxydation non enzymatiques aboutissant à la formation des mélanines.
On mesure donc la concentration en dopachrome formé au cours du temps en présence et en absence de l'inhibiteur.
Les concentrations en inhibiteurs sont fixées à 50 % molaire par rapport à la concentration en tyrosine dans le milieu réactionnel.
On exprime l'effet d'inhibition par l'abaissement de la quantité maximale de dopachrome formée (valeur de densité optique à 475 nm lue au plateau de la courbe) par rapport à la quantité obtenue en l'absence d'inhibiteur.
• A - Tampon phosphate 0,1 M pH = 6,5 (Tween 20 à 1 %) • B - Solution mère de L-tyrosine à 2.10^-3 M dans A • C - Solution mère de L-dopa à 10^-4 M dans A • D - Solution mère de tyrosinase de champignons à 2.400 unités/ml dans A • E - Solution mère de l'inhibiteur à 10^-2 M dans A (les solutions C et D sont à préparer le jour même)
• cuve de référence : 3 ml de A • cuve d'essai : 1 ml de B 0,1 ml de C 1,85ml de A + E • homogénéiser et équilibrer à 25°C • ajouter 0,05 ml de D • mélanger rapidement et observer la cinétique par la mesure de l'absorbance à 475 nm en fonction du temps.

| Compound | % change in maximal dopachrome formed vs no inhibitor [%] |
| --- | --- |
| Oc1ccc2cc(O)ccc2c1 [[drawing] r4] | -91 |
| Oc1ccc(O)cc1 [hydroquinone, reference compound] | -33 |
| Oc1ccc2c(O)cccc2c1 [[drawing] r3] | -47 |

— patent publication EP0623340B1, “Use of hydroxy or dihydroxynaphthalene in the preparation of a cosmetic or dermatological composition for skin whitening” (L'OREAL, priority 1993, dated 1994)
